Data taken from paper PMC7252619 (PLoS ONE, 2020).
Like-named read-outs stand apart in the source and are kept apart here.

Assays:
Assay in all cases: Kinase activity test (ReactionBiology), % enzyme activity relative to DMSO;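 for remaining activity: FDA-approved drugs chosen by structure-based repositioning, each screened at 10 or 1 µM for kinase activity, expressed as percent of DMSO controls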
Assay type in all cases: biochemical
CK1d = target: T1, CK1d (Homo sapiens, UniProt P48730); conditions: CK1d; for % Enzyme Activity (relative to DMSO controls), Data 1: replicate Data 1; for % Enzyme Activity (relative to DMSO controls), Data 2: replicate Data 2
T1 construct: purchased ReactionBiology

VEGFR2 = VEGFR2 (Homo sapiens, UniProt P35968); design: purchased ReactionBiology; conditions: VEGFR2; for % Enzyme Activity (relative to DMSO controls), Data 1: replicate Data 1; for % Enzyme Activity (relative to DMSO controls), Data 2: replicate Data 2;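 for all read-outs here: VEGFR2 was one member of a ten-kinase screening panel testing marketed FDA-approved drugs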
NEK2 = target: T2, NEK2 (Homo sapiens, UniProt P51955); conditions: NEK2;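 note: FDA-approved drugs chosen by structure-based repositioning, each screened at 10 or 1 µM for kinase activity, expressed as percent of DMSO controls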
T2 construct: purchased ReactionBiology
T2 sequence (P51955 1-445): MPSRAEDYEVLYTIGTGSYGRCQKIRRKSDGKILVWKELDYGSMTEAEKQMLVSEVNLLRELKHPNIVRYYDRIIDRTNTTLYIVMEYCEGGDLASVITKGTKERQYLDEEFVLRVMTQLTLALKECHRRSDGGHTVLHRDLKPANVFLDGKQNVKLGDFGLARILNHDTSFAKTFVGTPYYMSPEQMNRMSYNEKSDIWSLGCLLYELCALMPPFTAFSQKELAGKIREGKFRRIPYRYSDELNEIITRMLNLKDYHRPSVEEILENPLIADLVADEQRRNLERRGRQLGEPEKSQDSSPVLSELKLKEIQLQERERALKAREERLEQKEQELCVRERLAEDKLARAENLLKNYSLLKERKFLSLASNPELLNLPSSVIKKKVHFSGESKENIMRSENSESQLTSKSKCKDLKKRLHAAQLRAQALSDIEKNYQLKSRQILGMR

DAPK1 = target: T3, DAPK1 (Homo sapiens, UniProt P53355); conditions: DAPK1; for % Enzyme Activity (relative to DMSO controls), Data 1: replicate Data 1; for % Enzyme Activity (relative to DMSO controls), Data 2: replicate Data 2
T3 construct: purchased ReactionBiology

[1] = compound at 1 uM, average of Data 1 and Data 2
[2] = compound at 10 uM, average of Data 1 and Data 2

T1 sequence (P48730 whole entry): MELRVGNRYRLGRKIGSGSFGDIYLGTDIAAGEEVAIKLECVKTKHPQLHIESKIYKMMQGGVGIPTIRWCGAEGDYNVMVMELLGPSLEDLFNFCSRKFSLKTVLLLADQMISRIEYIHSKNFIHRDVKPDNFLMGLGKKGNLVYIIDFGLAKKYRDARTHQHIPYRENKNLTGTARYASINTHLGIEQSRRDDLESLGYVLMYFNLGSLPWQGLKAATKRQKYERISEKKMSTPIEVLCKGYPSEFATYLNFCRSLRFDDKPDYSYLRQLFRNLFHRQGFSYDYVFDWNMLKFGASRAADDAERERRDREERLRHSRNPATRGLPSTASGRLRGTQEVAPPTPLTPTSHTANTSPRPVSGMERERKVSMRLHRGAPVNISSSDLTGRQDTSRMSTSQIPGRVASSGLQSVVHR
Sequence of VEGFR2 (P35968 20-1356): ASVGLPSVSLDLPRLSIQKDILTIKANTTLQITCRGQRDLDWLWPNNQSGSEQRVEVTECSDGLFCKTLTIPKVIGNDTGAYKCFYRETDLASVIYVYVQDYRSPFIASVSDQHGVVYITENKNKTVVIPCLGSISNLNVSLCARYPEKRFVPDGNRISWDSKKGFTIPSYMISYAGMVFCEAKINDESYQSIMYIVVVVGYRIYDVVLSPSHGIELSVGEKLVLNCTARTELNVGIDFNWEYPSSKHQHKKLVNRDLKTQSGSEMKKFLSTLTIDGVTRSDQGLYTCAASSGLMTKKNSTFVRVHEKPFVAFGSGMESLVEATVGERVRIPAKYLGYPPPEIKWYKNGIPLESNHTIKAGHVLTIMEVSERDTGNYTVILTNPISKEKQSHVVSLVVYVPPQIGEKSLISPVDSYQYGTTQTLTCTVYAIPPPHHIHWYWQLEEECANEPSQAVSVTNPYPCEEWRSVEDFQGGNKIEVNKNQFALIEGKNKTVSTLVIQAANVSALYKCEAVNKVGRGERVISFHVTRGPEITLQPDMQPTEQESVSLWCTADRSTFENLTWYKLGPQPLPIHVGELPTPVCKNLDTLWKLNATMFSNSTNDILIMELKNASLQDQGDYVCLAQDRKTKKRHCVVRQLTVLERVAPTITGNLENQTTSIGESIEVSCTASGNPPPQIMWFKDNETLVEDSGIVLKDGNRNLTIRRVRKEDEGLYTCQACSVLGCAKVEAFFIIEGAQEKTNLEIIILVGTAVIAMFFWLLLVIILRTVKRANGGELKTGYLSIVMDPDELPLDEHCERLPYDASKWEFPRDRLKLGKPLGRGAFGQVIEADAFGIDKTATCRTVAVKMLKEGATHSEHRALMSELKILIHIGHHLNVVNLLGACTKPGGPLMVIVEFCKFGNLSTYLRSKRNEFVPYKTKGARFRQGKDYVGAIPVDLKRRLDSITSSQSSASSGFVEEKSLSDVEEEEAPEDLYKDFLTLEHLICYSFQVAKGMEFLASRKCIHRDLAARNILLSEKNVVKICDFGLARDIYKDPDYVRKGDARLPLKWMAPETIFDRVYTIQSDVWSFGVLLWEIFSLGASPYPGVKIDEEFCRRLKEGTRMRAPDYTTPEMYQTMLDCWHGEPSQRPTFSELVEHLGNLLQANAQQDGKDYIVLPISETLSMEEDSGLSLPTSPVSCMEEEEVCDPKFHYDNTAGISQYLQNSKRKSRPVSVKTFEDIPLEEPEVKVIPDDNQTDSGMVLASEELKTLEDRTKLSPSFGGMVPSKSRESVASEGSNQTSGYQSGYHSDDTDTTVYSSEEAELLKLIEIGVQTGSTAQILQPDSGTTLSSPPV
T3 sequence (P53355 whole entry): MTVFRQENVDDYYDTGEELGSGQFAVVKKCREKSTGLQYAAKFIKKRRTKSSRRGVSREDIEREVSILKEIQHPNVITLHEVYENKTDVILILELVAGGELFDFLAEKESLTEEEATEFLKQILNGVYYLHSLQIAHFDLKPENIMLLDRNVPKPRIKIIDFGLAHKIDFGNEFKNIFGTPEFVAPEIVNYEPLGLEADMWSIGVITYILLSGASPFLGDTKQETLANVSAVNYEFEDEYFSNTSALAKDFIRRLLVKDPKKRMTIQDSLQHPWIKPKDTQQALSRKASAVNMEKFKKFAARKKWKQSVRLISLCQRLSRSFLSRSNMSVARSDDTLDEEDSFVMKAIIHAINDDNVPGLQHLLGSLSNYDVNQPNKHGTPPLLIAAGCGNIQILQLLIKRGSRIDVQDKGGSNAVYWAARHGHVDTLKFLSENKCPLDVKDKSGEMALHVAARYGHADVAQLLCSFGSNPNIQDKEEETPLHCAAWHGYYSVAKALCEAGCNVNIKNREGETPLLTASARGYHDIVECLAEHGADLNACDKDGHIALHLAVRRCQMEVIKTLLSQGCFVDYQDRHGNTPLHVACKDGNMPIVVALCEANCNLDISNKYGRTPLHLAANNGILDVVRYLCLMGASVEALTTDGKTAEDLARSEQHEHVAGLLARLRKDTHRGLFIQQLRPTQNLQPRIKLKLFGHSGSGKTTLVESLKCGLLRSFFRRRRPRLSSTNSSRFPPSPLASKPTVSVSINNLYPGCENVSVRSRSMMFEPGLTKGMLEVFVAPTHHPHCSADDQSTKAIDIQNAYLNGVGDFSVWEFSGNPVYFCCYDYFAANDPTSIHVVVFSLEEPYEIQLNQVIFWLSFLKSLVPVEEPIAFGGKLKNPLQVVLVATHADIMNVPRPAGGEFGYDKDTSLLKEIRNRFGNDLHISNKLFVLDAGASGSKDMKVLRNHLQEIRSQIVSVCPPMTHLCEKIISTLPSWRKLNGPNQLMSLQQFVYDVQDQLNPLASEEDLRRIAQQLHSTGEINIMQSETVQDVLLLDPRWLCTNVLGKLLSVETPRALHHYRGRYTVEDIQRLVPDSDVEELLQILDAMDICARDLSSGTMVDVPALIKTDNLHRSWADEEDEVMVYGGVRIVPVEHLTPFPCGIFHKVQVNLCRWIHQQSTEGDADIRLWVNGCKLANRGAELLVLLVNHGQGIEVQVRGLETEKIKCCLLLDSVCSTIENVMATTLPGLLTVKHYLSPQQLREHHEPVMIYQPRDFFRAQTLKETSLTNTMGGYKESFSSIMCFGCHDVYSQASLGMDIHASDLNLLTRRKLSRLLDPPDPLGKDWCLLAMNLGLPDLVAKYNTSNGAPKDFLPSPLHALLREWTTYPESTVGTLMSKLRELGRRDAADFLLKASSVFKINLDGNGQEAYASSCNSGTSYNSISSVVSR

Structure (SMILES) | % Enzyme Activity (relative to DMSO controls), Data 1 (NEK2; 1 uM, replicate Data 1) [%] | % Enzyme Activity (relative to DMSO controls), Data 1 (NEK2; 10 uM, replicate Data 1) [%] | % Enzyme Activity (relative to DMSO controls), Average (NEK2; [1]) [%] | % Enzyme Activity (relative to DMSO controls), Data 1 (NEK2; compound at 1 uM, replicate 1) [%] | % Enzyme Activity (relative to DMSO controls), Data 2 (NEK2; compound at 1 uM, replicate 2) [%] | % Enzyme Activity (relative to DMSO controls), Average (NEK2; [2]) [%] | % Enzyme Activity (relative to DMSO controls), Data 1 (NEK2; compound at 10 uM, replicate 1) [%] | % Enzyme Activity (relative to DMSO controls), Data 2 (NEK2; compound at 10 uM, replicate 2) [%] | % Enzyme Activity (relative to DMSO controls), Average (NEK2; 1 uM, Average) [%] | % Enzyme Activity (relative to DMSO controls), Data 2 (NEK2; 1 uM, replicate Data 2) [%] | % Enzyme Activity (relative to DMSO controls), Average (NEK2; 10 uM, Average) [%] | % Enzyme Activity (relative to DMSO controls), Data 2 (NEK2; 10 uM, replicate Data 2) [%] | also measured
CCCc1nn(C)c2c(=O)[nH]c(-c3cc(S(=O)(=O)N4CCN(C)CC4)ccc3OCC)nc12 [Sildenafil] | 95.77 | 85.23 | – | – | – | – | – | – | – | – | – | – | % Enzyme Activity (relative to DMSO controls), Data 1 (CK1d; 1 uM): 107.72%; % Enzyme Activity (relative to DMSO controls), Data 1 (VEGFR2; 1 uM): 112.59%; % Enzyme Activity (relative to DMSO controls), Data 1 (VEGFR2; 10 uM): 111.96%
Nc1nc2c(ncn2COC(CO)CO)c(=O)[nH]1 [Ganciclovir] | – | – | 111.12 | 112.02 | 110.21 | 89.44 | 97.24 | 81.63 | – | – | – | – | –
Nc1nc2c(ncn2COCCO)c(=O)[nH]1 [Acyclovir] | 83.95 | 101.40 | – | – | – | – | – | – | 93.64 | 103.33 | 100.63 | 99.86 | –
CC(=O)CCCCn1c(=O)c2c(ncn2C)n(C)c1=O [Pentoxifylline] | 91.06 | 86.43 | – | – | – | – | – | – | 90.71 | 90.35 | 88.11 | 89.78 | –
NC[C@H]1CC[C@H](C(=O)O)CC1 [Tranexamic acid] | – | – | – | – | – | – | – | – | – | – | – | – | remaining activity at 1 µM (NEK2; 1 uM, Average, read-out: % Enzyme Activity (relative to DMSO controls), Average): 72.5%; remaining activity at 1 µM (NEK2; 1 uM, replicate Data 1, read-out: % Enzyme Activity (relative to DMSO controls), Data 1): 60.7%; remaining activity at 1 µM (NEK2; 1 uM, replicate Data 2, read-out: % Enzyme Activity (relative to DMSO controls), Data 2): 84.2%; remaining activity at 10 µM (NEK2; 10 uM, Average, read-out: % Enzyme Activity (relative to DMSO controls), Average): 85.3%; remaining activity at 10 µM (NEK2; 10 uM, replicate Data 1, read-out: % Enzyme Activity (relative to DMSO controls), Data 1): 72.1%; remaining activity at 10 µM (NEK2; 10 uM, replicate Data 2, read-out: % Enzyme Activity (relative to DMSO controls), Data 2): 98.5%
Cc1ccc(C(=O)c2ccc(CC(=O)O)n2C)cc1 [Tolmetin] | – | – | 115.23 | 120.50 | 109.96 | 107.09 | 112.71 | 101.47 | – | – | – | – | –
Cc1nnc(C(C)C)n1C1C[C@H]2CC[C@@H](C1)N2CC[C@H](NC(=O)C1CCC(F)(F)CC1)c1ccccc1 (stereo in doubt) [Maraviroc] | 89.78 | 99.97 | – | – | – | – | – | – | 95.71 | 101.63 | 100.82 | 101.67 | –
O=C(O)c1cc(-c2ccc(F)cc2F)ccc1O [Diflunisal] | 87.06 | 100.11 | – | – | – | – | – | – | 92.13 | 97.20 | 102.79 | 105.46 | % Enzyme Activity (relative to DMSO controls), Average (CK1d; 1 uM): 189.68%; % Enzyme Activity (relative to DMSO controls), Data 1 (CK1d; 1 uM): 106.89%; % Enzyme Activity (relative to DMSO controls), Data 2 (CK1d; 1 uM): 272.47%; % Enzyme Activity (relative to DMSO controls), Average (CK1d; 10 uM): 105.59%; % Enzyme Activity (relative to DMSO controls), Data 1 (CK1d; 10 uM): 104.76%; % Enzyme Activity (relative to DMSO controls), Data 2 (CK1d; 10 uM): 106.42%
CCc1nc(N)nc(N)c1-c1ccc(Cl)cc1 [Pyrimethamine] | 107.69 | 102.17 | – | – | – | – | – | – | 106.09 | 104.49 | 102.63 | 103.08 | % Enzyme Activity (relative to DMSO controls), Average (CK1d; 1 uM): 93.71%; % Enzyme Activity (relative to DMSO controls), Data 1 (CK1d; 1 uM): 95.24%; % Enzyme Activity (relative to DMSO controls), Data 2 (CK1d; 1 uM): 92.18%; % Enzyme Activity (relative to DMSO controls), Average (CK1d; 10 uM): 84.36%; % Enzyme Activity (relative to DMSO controls), Data 1 (CK1d; 10 uM): 85.89%; % Enzyme Activity (relative to DMSO controls), Data 2 (CK1d; 10 uM): 82.82%; % Enzyme Activity (relative to DMSO controls), Average (VEGFR2; 1 uM): 107.43%; % Enzyme Activity (relative to DMSO controls), Data 1 (VEGFR2; 1 uM): 104.33%; % Enzyme Activity (relative to DMSO controls), Data 2 (VEGFR2; 1 uM): 110.52%; % Enzyme Activity (relative to DMSO controls), Average (VEGFR2; 10 uM): 102.76%; % Enzyme Activity (relative to DMSO controls), Data 1 (VEGFR2; 10 uM): 106.39%; % Enzyme Activity (relative to DMSO controls), Data 2 (VEGFR2; 10 uM): 99.13%
N[C@H]1C(O)O[C@H](CO)[C@@H](O)[C@@H]1O (some centres unmarked) [Glucosamine] | 79.92 | 90.86 | – | – | – | – | – | – | 82.84 | 85.75 | 95.78 | 100.69 | % Enzyme Activity (relative to DMSO controls), Average (DAPK1; 1 uM): 102.43%; % Enzyme Activity (relative to DMSO controls), Data 1 (DAPK1; 1 uM): 102.25%; % Enzyme Activity (relative to DMSO controls), Data 2 (DAPK1; 1 uM): 102.61%; % Enzyme Activity (relative to DMSO controls), Average (DAPK1; 10 uM): 123.43%; % Enzyme Activity (relative to DMSO controls), Data 1 (DAPK1; 10 uM): 142.72%; % Enzyme Activity (relative to DMSO controls), Data 2 (DAPK1; 10 uM): 104.13%
CC(=O)OCC1=C(C(=O)O)N2C(=O)[C@@H](NC(=O)Cc3cccs3)[C@H]2SC1 [Cephalothin] | – | – | 98.03 | 94.64 | 101.41 | 78.52 | 86.91 | 70.13 | – | – | – | – | –
Cc1nc(=O)c2cc(CN(C)c3ccc(C(=O)N[C@@H](CCC(=O)O)C(=O)O)s3)ccc2[nH]1 [Raltitrexed] | 108.18 | 101.42 | – | – | – | – | – | – | 103.04 | 97.89 | 95.93 | 90.43 | % Enzyme Activity (relative to DMSO controls), Average (VEGFR2; 1 uM): 107.68%; % Enzyme Activity (relative to DMSO controls), Data 1 (VEGFR2; 1 uM): 107.41%; % Enzyme Activity (relative to DMSO controls), Data 2 (VEGFR2; 1 uM): 107.94%; % Enzyme Activity (relative to DMSO controls), Average (VEGFR2; 10 uM): 105.59%; % Enzyme Activity (relative to DMSO controls), Data 1 (VEGFR2; 10 uM): 105%; % Enzyme Activity (relative to DMSO controls), Data 2 (VEGFR2; 10 uM): 106.17%
c1coc(CNc2ncnc3[nH]cnc23)c1 [Kinetin] | – | – | 107.09 | 107.23 | 106.95 | 94.02 | 94.51 | 93.52 | – | – | – | – | –
OC[C@@H](O)[C@@H](O)[C@H](O)[C@H](O)CO [Mannitol] | – | – | 113.06 | 110.81 | 115.31 | 102.41 | 100.39 | 104.43 | – | – | – | – | –
